Data taken from patent US5756491A, “Antiviral cobalt-organic compounds” (priority 1991, dated 1998).
Values after ≈ are worked out from the molar mass of the structure shown.

Columns and labels:
HFF cells [1] = assay: Cell proliferation assay; format: cell-based, human; conditions: rapidly growing cells
Procedure: Twenty-four hours prior to assay, HFF cells are seeded in 6-well plates at a concentration of 2.5×10^4 cells per well in MEM containing 10% FBS. On the day of the assay, drugs are diluted serially in MEM containing 10% FBS at increments of 1:5 covering a range from 100 μg/ml to 0.03 μg/ml. […] The media from the wells is then aspirated and 2 ml of each drug concentration is then added to each well. The cells are then incubated in a Co2 incubator at 37° C. for 72 h. At the end of this time, the media-drug solution is removed and the cells washed. […] The cell-media mixture is then pipetted up and down vigorously to break up the cell suspension and 0.2 ml of the mixture is added to 9.8 ml of Isoton III and counted using a Coulter Counter. Each sample is counted three times with three replicate wells per sample.

HFF cells [2] = assay: Neutral red uptake toxicity; format: cell-based, human; conditions: stationary cells
HFF cells [3] = assay: MTT assay for cell cytotoxicity; format: cell-based, human; conditions: stationary cells
Procedure: Twenty-four hours prior to assay, HFF cells are plated into 96 well plates at a concentration of […] cells per well. After 24 h, the media is aspirated and […] of drug is added to the first row of wells and then diluted serially 1:5 using the automated Cetus Liquid Handling System in a manner similar to that used in the CPE assay. The plates are then incubated in a CO2 incubator at 37° C. for seven days. At this time, each well receives 50 microliters of […] solution of MTT in Dulbecco's Phosphate Buffered Saline. The plates are then incubated for an additional four hours. At this time, the media is removed and replaced with 100 μl of 0.04N hydrochloric acid in isopropanol. After shaking briefly, the plates are then read on a plate reader at 550 nm.

HSV-1 [4] = assay: HSV-1 plaque reduction assay; format: cell-based; conditions: Human alphaherpesvirus 1, read-out: EC50
Procedure: Two days prior to use, HFF cells are plated into six well plates and incubated at 37° C. with 5% CO2 and 90% humidity. On the date of assay, the drug is made up at twice the desired concentration in 2×MEM and then serially diluted 1:5 in 2×MEM using six concentrations of drug. The initial starting concentration is usually 200 μg/ml down to 0.06 μg/ml. The virus to be used is diluted in MEM containing 10% FBS to a desired concentration which will give 20-30 plaques per well. The media is then aspirated from the wells and 0.2 ml of virus is added to each well in duplicate with 0.2 ml of media being added to drug toxicity wells. The plates are then incubated for one hour with shaking every fifteen minutes. After the incubation period, an equal amount of 1% agarose was added to a equal volume of each drug dilution. This will give final drug concentrations beginning with 100 μg/ml and ending with 0.03 μg/ml and a final agarose overlay concentration of 0.5%. The drug agarose mixture is applied to each well in 2 ml volume and the plates then incubated for three days, after which the cells were stained with a 1.5% solution of neutral red. At the end of 4-6 hr incubation period, the stain is aspirated, and plaques counted using a stereomicroscope at 1×magnification.
(§1) The procedure for the liquid overlay plaque assay is similar to that using the agarose overlay. The procedure for adding the virus is the same as for the regular plaque assay. The drugs are made up in a concentration to be used in MEM with 2% FBS. The drugs are not made up at 2×concentration as in previous assays but are made up at the desired concentration. For HSV-1 and HSV-2 assays, an antibody preparation obtained from Baxter Health Care Corporation is diluted 1:500 and added to the media that the drug is diluted in. For CMV and VZV, no antibody in the overlay is utilized. For the CMV assay, additional medium without new drug is added on day six and allowed to incubate for a total of 11 days. For VZV, additional media is added on day five and incubated for a total of eight days. At the end of the incubation period for all of the assays, the medium is removed, the cells washed and then stained with 0.1% crystal violet solution for ten minutes. The cells are then rinsed several times to remove any excess crystal violet and plaques enumerated using a stereomicroscope.
(§2) I. EC50 values were also determined for each of the viruses tested for known antiviral agents. The comparison compound was ACV for all viruses except for HCMV aherein DHPG was the comparison compound. In Table 26, these comparison EC50 values are indicated with an asterisk. In Table 27, the drug FIAU (2'-fluoro-5-iodo-arabinosyl-uracil) was used as a control.

[5] = VZV plaque reduction assay; format: cell-based; conditions: Human alphaherpesvirus 3, V2V
Procedure: The procedure is essentially the same as for the HSV plaque assay described above with two exceptions:
1. After addition of the drug, the plates are incubated for ten days.
2. On days three and six an additional 1 ml overlay with equal amounts of 2×MEM and 1% agarose are added.
as §1, with “The cells are then rinsed several times to remove any excess crystal violet and plaques enumerated using a stereomicroscope.” left out
(§3) I. EC50 values were also determined for each of the viruses tested for known antiviral agents. […]

HSV-2 = HSV-2 cytopathic effect (CPE) inhibition assay; format: cell-based; conditions: Human alphaherpesvirus 2; HSV-2, CPE
Procedure: (§4) Low passage human foreskin fibroblast cells were seeded into 96 well tissue culture plates 24 hours prior to use at a cell concentration of 2.5×10^4 cells per ml in 0.1 ml (MEM) supplemented with 10% fetal bovine serum (FBS). The cells were then incubated for 24 hour at 37° C. in a CO2 incubator. After incubation, the medium was removed and 100 μl of MEM containing 2% FBS was added to all but the first row. In the first row, 125 μl of experimental drug was added in triplicate wells. Medium alone was added to both cell and virus control wells. The drug in the first row of wells was then diluted serially 1:5 throughout the remaining wells by transferring 25 μl using the Cetus Liquid Handling Machine. After dilution of drug, 100 μl of the appropriate virus concentration was added to each well, excluding cell control wells which received 100 μl of MEM. For HSV-1 and HSV-2 assays, the virus concentration utilized was 1000 PFU's per well. For CMV and VZV assays, the virus concentration added was 2500 PFU per well. The plates were then incubated at 37° C. in a CO2 incubator for three days for HSV-1 and HSV-2, 10 days for VZV, or 14 days for CMV. […] The plates were allowed to dry for 24 h and then read on a Skatron Plate Reader at 620 nm.
as §3

HSV-1 [6] = assay: HSV-1 cytopathic effect (CPE) inhibition assay; format: cell-based; conditions: Human alphaherpesvirus 1; HSV-1, CPE
Procedure: as §4, §3

EBV = EBV IMN assay; format: cell-based; conditions: human gammaherpesvirus 4, EBV
Procedure: as §2

Compound	toxicity IC50, cell proliferation (HFF cells [1]) [MCG/ML]	toxicity IC50, neutral red uptake (HFF cells [2]) [MCG/ML]	toxicity IC50, MTT toxicity (HFF cells [3]) [MCG/ML]	EC50 (HSV-1 [4]) [µg/mL]	EC50 [5] [µg/mL]	EC50 (HSV-2) [µg/mL]	EC50 (HSV-1 [6]) [µg/mL]	EC50 (EBV) [µg/mL]
CC1=C(Cl)C(C)=[N+]2CC[N+]3=C(C)C(Cl)=C(C)[O][Co-3]23([NH3+])([NH3+])[O]1.[Cl-] [Compound 67]	12.0	12.1	42.0					
CC1=[N+]2CC[N+]3=C(C)C=C(c4ccccc4)[O][Co-3]23([NH3+])([NH3+])[O]C(c2ccccc2)=C1.[Cl-] [Compound 64]	38	15.2	53					
Nc1nc2c(ncn2COCCO)c(=O)[nH]1 [ACV]				0.2 (≈ 0.888 µM)	3.2 (≈ 14.2 µM)	0.7 (≈ 3.11 µM)	0.2 (≈ 0.888 µM)	5.8 (≈ 25.8 µM)
